Measured values taken from patent publication US9944645B2, “Imidazotriazines and imidazopyrimidines as kinase inhibitors” (Incyte Holdings Corporation, priority 2006, dated 2018).

biological target: c-Met kinase (h-Met; histidine-tagged c-Met catalytic domain fusion protein) (Homo sapiens (Human), UniProt P08581); assay: In Vitro c-Met Kinase Enzyme Assays; format: biochemical; conditions: phosphorylation of poly Glu-Tyr, 5 μM ATP, 25 minutes at 30° C.
Summary of the method: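 His-tagged c-Met catalytic domain reacted 25 min at 30° C, within the linear initial-rate range. Phosphotyrosine detected by ELISA with peroxidase-labeled anti-phospho-tyrosine antibody and TMB, OD read at 450 nm (540 nm correction); IC50 from curve fit.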

Sequence of c-Met kinase (h-Met; histidine-tagged c-Met catalytic domain fusion protein) (P08581 1078-1345): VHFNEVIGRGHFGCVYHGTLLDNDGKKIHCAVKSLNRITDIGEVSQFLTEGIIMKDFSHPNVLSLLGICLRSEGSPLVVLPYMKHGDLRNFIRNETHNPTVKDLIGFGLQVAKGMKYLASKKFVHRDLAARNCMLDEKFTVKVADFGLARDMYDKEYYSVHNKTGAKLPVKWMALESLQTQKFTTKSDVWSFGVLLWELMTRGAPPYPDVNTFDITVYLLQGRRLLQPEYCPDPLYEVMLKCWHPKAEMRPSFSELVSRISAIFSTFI

IC50, < 500 nM:
COCC1(NC(=O)c2ccc(-c3cnc4ncc(Cc5ccc6ncccc6c5)n4n3)cc2F)CCOCC1 [Example 145, 2-Fluoro-N-[4-(methoxymethyl)tetrahydro-2H-pyran-4-yl]-4-[7-(quinolin-6-ylmethyl)imidazo[1,2-b][1,2,4]triazin-2-yl]benzamide]
O=C(NCC1CC1)c1ccc(-c2cnc3ncc(Cc4ccc5ncccc5c4)n3n2)cc1F [Example 146, N-(Cyclopropylmethyl)-2-fluoro-4-[7-(quinolin-6-ylmethyl)imidazo[1,2-b][1,2,4]triazin-2-yl]benzamide]
O=C(NCC1CCOCC1)c1ccc(-c2cnc3ncc(Cc4ccc5ncccc5c4)n3n2)cc1F [Example 147, 2-Fluoro-4-[7-(quinolin-6-ylmethyl)imidazo[1,2-b][1,2,4]triazin-2-yl]-N-(tetrahydro-2H-pyran-4-ylmethyl)benzamide]
CN(C)CCNC(=O)c1ccc(-c2cnc3ncc(Cc4ccc5ncccc5c4)n3n2)cc1F [Example 148, N-[2-(Dimethylamino)ethyl]-2-fluoro-4-[7-(quinolin-6-ylmethyl)imidazo[1,2-b][1,2,4]triazin-2-yl]benzamide]
O=C(NCCN1CCCCC1)c1ccc(-c2cnc3ncc(Cc4ccc5ncccc5c4)n3n2)cc1F [Example 149, 2-Fluoro-N-(2-piperidin-1-ylethyl)-4-[7-(quinolin-6-ylmethyl)imidazo[1,2-b][1,2,4]triazin-2-yl]benzamide]
CN1CCCC1CCNC(=O)c1ccc(-c2cnc3ncc(Cc4ccc5ncccc5c4)n3n2)cc1F (centres unmarked) [Example 150, 2-Fluoro-N-[2-(1-methylpyrrolidin-2-yl)ethyl]-4-[7-(quinolin-6-ylmethyl)imidazo[1,2-b][1,2,4]triazin-2-yl]benzamide]
O=C(NCc1ccccn1)c1ccc(-c2cnc3ncc(Cc4ccc5ncccc5c4)n3n2)cc1F [Example 151, 2-Fluoro-N-(pyridin-2-ylmethyl)-4-[7-(quinolin-6-ylmethyl)imidazo[1,2-b][1,2,4]triazin-2-yl]benzamide]
O=C(NCc1cccnc1)c1ccc(-c2cnc3ncc(Cc4ccc5ncccc5c4)n3n2)cc1F [Example 152, 2-Fluoro-N-(pyridin-3-ylmethyl)-4-[7-(quinolin-6-ylmethyl)imidazo[1,2-b][1,2,4]triazin-2-yl]benzamide]
O=C(NCc1ccncc1)c1ccc(-c2cnc3ncc(Cc4ccc5ncccc5c4)n3n2)cc1F [Example 153, 2-Fluoro-N-(pyridin-4-ylmethyl)-4-[7-(quinolin-6-ylmethyl)imidazo[1,2-b][1,2,4]triazin-2-yl]benzamide]
O=C(NCCc1ccccn1)c1ccc(-c2cnc3ncc(Cc4ccc5ncccc5c4)n3n2)cc1F [Example 154, 2-Fluoro-N-(2-pyridin-2-ylethyl)-4-[7-(quinolin-6-ylmethyl)imidazo[1,2-b][1,2,4]triazin-2-yl]benzamide]
CC(NC(=O)c1ccc(-c2cnc3ncc(Cc4ccc5ncccc5c4)n3n2)cc1F)c1cccnc1 (centres unmarked) [Example 155, 2-Fluoro-N-(1-pyridin-3-ylethyl)-4-[7-(quinolin-6-ylmethyl)imidazo[1,2-b][1,2,4]triazin-2-yl]benzamide]
CC(NC(=O)c1ccc(-c2cnc3ncc(Cc4ccc5ncccc5c4)n3n2)cc1F)c1ccncc1 (centres unmarked) [Example 156, 2-Fluoro-N-(1-pyridin-4-ylethyl)-4-[7-(quinolin-6-ylmethyl)imidazo[1,2-b][1,2,4]triazin-2-yl]benzamide]
CC(C)(C)[C@@H](CO)NC(=O)c1ccc(-c2cnc3ncc(Cc4ccc5ncccc5c4)n3n2)cc1F [Example 157, 2-Fluoro-N-[(1S)-1-(hydroxymethyl)-2,2-dimethylpropyl]-4-[7-(quinolin-6-ylmethyl)imidazo[1,2-b][1,2,4]triazin-2-yl]benzamide]
O=C(NC1(CO)CCCC1)c1ccc(-c2cnc3ncc(Cc4ccc5ncccc5c4)n3n2)cc1F [Example 158, 2-Fluoro-N-[1-(hydroxymethyl)cyclopentyl]-4-[7-(quinolin-6-ylmethyl)imidazo[1,2-b][1,2,4]triazin-2-yl]benzamide]
CC(c1ccc2ncccc2c1)c1cnc2ncc(-c3ccc(C(=O)N[C@H]4CC[C@H](O)CC4)c(F)c3)nn12 (stereo partly drawn) [Example 159, 2-Fluoro-N-(trans-4-hydroxycyclohexyl)-4-[7-(1-quinolin-6-ylethyl)imidazo[1,2-b][1,2,4]triazin-2-yl]benzamide]
CNC(=O)c1ccc(-c2cnc3ncc(C(C)c4ccc5ncccc5c4)n3n2)cc1F (centres unmarked) [Example 160, 2-Fluoro-N-methyl-4-[7-(1-quinolin-6-ylethyl)imidazo[1,2-b][1,2,4]triazin-2-yl]benzamide]
CC(c1ccc2ncccc2c1)c1cnc2ncc(-c3ccc(C(=O)NC4CC4)c(F)c3)nn12 (centres unmarked) [Example 161, N-Cyclopropyl-2-fluoro-4-[7-(1-quinolin-6-ylethyl)imidazo[1,2-b][1,2,4]triazin-2-yl]benzamide]
COCC1(NC(=O)c2ccc(-c3cnc4ncc(C(C)c5ccc6ncccc6c5)n4n3)cc2F)CC1 (centres unmarked) [Example 162, 2-Fluoro-N-[1-(methoxymethyl)cyclopropyl]-4-[7-(1-quinolin-6-ylethyl)imidazo[1,2-b][1,2,4]triazin-2-yl]benzamide]
COCC(C)NC(=O)c1ccc(-c2cnc3ncc(C4(c5ccc6ncccc6c5)CC4)n3c2)cc1F (centres unmarked) [Example 163, 2-Fluoro-N-(2-methoxy-1-methylethyl)-4-[3-(1-quinolin-6-ylcyclopropyl)imidazo[1,2-a]pyrimidin-6-yl]benzamide]
O=C(c1ccc(-c2cnc3ncc(C4(c5ccc6ncccc6c5)CC4)n3c2)cc1F)N1CC[C@H](F)C1 [Example 164, 6-{1-[6-(3-Fluoro-4-[(3S)-3-fluoropyrrolidin-1-yl]carbonylphenyl)imidazo[1,2-a]pyrimidin-3-yl]cyclopropyl}quinoline]
O=C(NCc1ccccn1)c1ccc(-c2cnc3ncc(C4(c5ccc6ncccc6c5)CC4)n3c2)cc1F [Example 165, 2-Fluoro-N-(pyridin-2-ylmethyl)-4-[3-(1-quinolin-6-ylcyclopropyl)imidazo[1,2-a]pyrimidin-6-yl]benzamide]
O=C(NC1(c2ccccn2)CC1)c1ccc(-c2cnc3ncc(C4(c5ccc6ncccc6c5)CC4)n3c2)cc1F [Example 166, 2-Fluoro-N-(1-pyridin-2-ylcyclopropyl)-4-[3-(1-quinolin-6-ylcyclopropyl)imidazo[1,2-a]pyrimidin-6-yl]benzamide]
O=C(NC1CCN(c2ccccn2)C1)c1ccc(-c2cnc3ncc(C4(c5ccc6ncccc6c5)CC4)n3c2)cc1F (centres unmarked) [Example 167, 2-Fluoro-N-(1-pyridin-2-ylpyrrolidin-3-yl)-4-[3-(1-quinolin-6-ylcyclopropyl)imidazo[1,2-a]pyrimidin-6-yl]benzamide]
O=C(N[C@@H]1CCOC1)c1ccc(-c2cnc3ncc(C4(c5ccc6ncccc6c5)CC4)n3c2)cc1F [Example 168, 2-Fluoro-4-[3-(1-quinolin-6-ylcyclopropyl)imidazo[1,2-a]pyrimidin-6-yl]-N-[(3R)-tetrahydrofuran-3-yl]benzamide]
O=C(NCC1CCCO1)c1ccc(-c2cnc3ncc(C4(c5ccc6ncccc6c5)CC4)n3c2)cc1F (centres unmarked) [Example 169, 2-Fluoro-4-[3-(1-quinolin-6-ylcyclopropyl)imidazo[1,2-a]pyrimidin-6-yl]-N-(tetrahydrofuran-2-ylmethyl)benzamide]
O=C(NC1CC1)c1ccc(-c2cnc3ncc(C4(c5ccc6ncccc6c5)CC4)n3c2)cc1F [Example 170, N-Cyclopropyl-2-fluoro-4-[3-(1-quinolin-6-ylcyclopropyl)imidazo[1,2-a]pyrimidin-6-yl]benzamide]
COC[C@@H](NC(=O)c1ccc(-c2cnc3ncc(C4(c5ccc6ncccc6c5)CC4)n3c2)cc1F)C(C)C [Example 171, 2-Fluoro-N-[(1S)-1-(methoxymethyl)-2-methylpropyl]-4-[3-(1-quinolin-6-ylcyclopropyl)imidazo[1,2-a]pyrimidin-6-yl]benzamide]
NC(=O)c1ccc(-c2cnc3ncc(C4(c5ccc6ncccc6c5)CC4)n3c2)cc1F [Example 172, 2-Fluoro-4-[3-(1-quinolin-6-ylcyclopropyl)imidazo[1,2-a]pyrimidin-6-yl]benzamide]
CN(CCN(C)c1ccccn1)C(=O)c1ccc(-c2cnc3ncc(C4(c5ccc6ncccc6c5)CC4)n3c2)cc1F [Example 173, 2-Fluoro-N-methyl-N-2-[methyl(pyridin-2-yl)amino]ethyl-4-[3-(1-quinolin-6-ylcyclopropyl)imidazo[1,2-a]pyrimidin-6-yl]benzamide]
CNC(=O)c1ccc(-c2cnc3ncc(C4(c5ccc6ncccc6c5)CC4)n3c2)cc1Cl [Example 174, 2-Chloro-N-methyl-4-[3-(1-quinolin-6-ylcyclopropyl)imidazo[1,2-a]pyrimidin-6-yl]benzamide]
O=C(NC1CC1)c1ccc(-c2cnc3ncc(C4(c5ccc6ncccc6c5)CC4)n3c2)cc1Cl [Example 175, 2-Chloro-N-cyclopropyl-4-[3-(1-quinolin-6-ylcyclopropyl)imidazo[1,2-a]pyrimidin-6-yl]benzamide]
O=C(NC1CCOC1)c1ccc(-c2cnc3ncc(C4(c5ccc6ncccc6c5)CC4)n3c2)cc1Cl (centres unmarked) [Example 176, 2-Chloro-4-[3-(1-quinolin-6-ylcyclopropyl)imidazo[1,2-a]pyrimidin-6-yl]-N-(tetrahydrofuran-3-yl)benzamide]
